# Results from US11845730B2, “1,3-substituted cyclobutyl derivatives and uses thereof” (Novartis AG, priority 2021, dated 2023).
# Where a name gives a salt, the structure may show the parent alone.
# Biological target: human TRPV1 (Homo sapiens (Human), UniProt Q8NER1)
# Settings: read-out: IC50 (μM), antagonist effect against human TRPV1; CHO cells expressing human TrpV1; stimulated with 2.5 μM NADA (EC80); mean of at least three independent experiments
# Experimental: Chinese Hamster Ovary (CHO) cells transfected to express human TrpV1 receptor (which are herein referred to as CHO-huTrpV1 cells), were grown in F-12 Ham's Nutrient Mixture media (HyClone SH30026.01) supplemented with 10% Fetal Bovine Serum (Invitrogen #26140-079), 1% Antibiotic/antimycotic (Invitrogen #15240-062) and 500 ug/mL geneticin (ThermoFisher scientific #1031035). Cells were grown in T-75 flasks at 37° C. incubator with 5% CO2. The cells were passaged twice a week at a ratio of 1:10 to 1:20 to maintain steady growth. For experimentation, cells were harvested at approximately 80% confluency and plated onto 384 well black cell culture plates (cat #781091, Greinier Bio-One Inc.) at 15,000 cells per well in 20 μl media and grown overnight.
# The loading dye was prepared following instruction of Calcium 6 assay kit (Molecular Probes, #R8190): 10 ml buffer from bottle B was added to 1 vial of bottle A (adapted to room temperature from −20° C.) and mixed well, then 2.5 mM of fresh prepared probenecid, was added and mixed well. 20 μl/well of loading dye was added on top of the cells, and incubated at 37° C. for 1 hour 30 min.
# Assay buffer preparation: 1×HBSS, 2 mM HEPES, 0.1% BSA plus 2.5 mM freshly prepared probenecid (Invitrogen, #P36400). 25 μl/well assay buffer in 384 well clear plate (cat #782281, Greiner Bio-one) was dispensed with buffer distributor (Multidrop ComB1 from Thermo Scientific). The compounds were in 384 Echo plate (cat #LPL0200, Labcyte) and the starting concentration of compound was 10 mM, then 1 to 3 serial dilution in 100% DMSO, 8 ul/well). 125 nl compounds was transferred to the 384 well plate containing 25 μl/well buffer with Echo® 555 Liquid Handler (Labcyte), such that the compound concentration was 5 fold of final concentration. The plate was shook slowly at 40 rpm/min for 10 min to mix. 10 μl of 5 fold compound in the buffer was transferred to the cell plate (containing 20 μl cells and 20 μl dye) using Vertical Pipetting Station 384ST (Agilent Technologies). Six fold of final concentration of NADA (N-arachidonyl dopamine, cat #A8848, Sigma) in the assay buffer was prepared and 30 μl/well was distributed in 384 well clear plate.
# After compounds were added to the cell plate with loading dye, within 10-15 minutes, cell plate and plate containing NADA was placed into the FLIPR (Fluorescent Imaging Plate Reader) instrument (Tetra System, Molecular device). The TRPV1 receptor was stimulated by application of 10 μl per well of NADA. For testing the effect of compounds for possible antagonism, 2.5 μM NADA was used at the EC80 concentration.
# For determination of antagonist IC50 values (concentration of antagonist that inhibits response to NADA by 50%), at least 10 antagonist concentration were measured in triplicate. The response in the presence of the antagonist was calculated as a percentage of the control response to NADA and was plotted against the concentration of the antagonist. The IC50 was estimated by non-linear regression analysis to sigmoidal-logistic curves by HELIOS (PROD 2) system. These values were averaged (means and standard error of the mean) for at least three independent experiments.
# Chain of human TRPV1 (Q8NER1 whole entry): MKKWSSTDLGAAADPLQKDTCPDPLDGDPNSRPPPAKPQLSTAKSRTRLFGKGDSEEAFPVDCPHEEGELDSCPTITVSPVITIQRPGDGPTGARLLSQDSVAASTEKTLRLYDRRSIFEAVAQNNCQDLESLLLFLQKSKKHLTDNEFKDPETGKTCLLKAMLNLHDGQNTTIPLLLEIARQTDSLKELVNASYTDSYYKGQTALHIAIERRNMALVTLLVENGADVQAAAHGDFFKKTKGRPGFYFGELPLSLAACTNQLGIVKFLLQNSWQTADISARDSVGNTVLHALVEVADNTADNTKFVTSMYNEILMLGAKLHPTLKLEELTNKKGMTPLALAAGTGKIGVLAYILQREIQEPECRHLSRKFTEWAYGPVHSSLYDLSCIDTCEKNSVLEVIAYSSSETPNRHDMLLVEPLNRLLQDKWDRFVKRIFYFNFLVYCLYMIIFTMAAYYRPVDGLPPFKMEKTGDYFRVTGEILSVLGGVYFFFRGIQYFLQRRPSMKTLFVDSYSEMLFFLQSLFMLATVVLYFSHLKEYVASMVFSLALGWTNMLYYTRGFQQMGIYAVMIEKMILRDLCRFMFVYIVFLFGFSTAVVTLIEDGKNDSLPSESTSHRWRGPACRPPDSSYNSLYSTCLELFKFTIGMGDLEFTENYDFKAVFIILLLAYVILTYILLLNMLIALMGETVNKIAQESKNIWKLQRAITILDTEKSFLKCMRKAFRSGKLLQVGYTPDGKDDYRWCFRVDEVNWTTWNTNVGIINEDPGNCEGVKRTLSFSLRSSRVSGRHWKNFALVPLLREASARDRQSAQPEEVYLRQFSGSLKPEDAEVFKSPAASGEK
row,SMILES,IC50 [µM]
1,"N#Cc1ccc(O[C@H]2C[C@H](NCc3c(F)ccc4cnccc34)C2)cc1C(F)(F)F [Example 86, 4-((1r,3r)-3-(((6-fluoroisoquinolin-5-yl)methyl)amino)cyclobutoxy)-2-(trifluoromethyl)benzonitrile, HCl]",0.0693
2,"Nc1cc2c(CN[C@H]3C[C@H](Oc4ccc(C(F)(F)F)nc4)C3)cccc2cn1 [Example 74, 5-((((1r,3r)-3-((6-(trifluoromethyl)pyridin-3-yl)oxy)cyclobutyl)amino)methyl)isoquinolin-3-amine]",0.995
3,"Fc1ccc2cnccc2c1CN[C@H]1C[C@H](Oc2ccc(OC(F)(F)F)cc2)C1 [Example 36, (1r,3r)-N-((6-fluoroisoquinolin-5-yl)methyl)-3-(4-(trifluoromethoxy)phenoxy)cyclobutan-1-amine, HCl]",0.0989
4,"Fc1ccc2cnccc2c1CN[C@H]1C[C@H](Oc2ccnc(C(F)(F)F)c2)C1 [Example 56, (1r,3r)-N-((6-fluoroisoquinolin-5-yl)methyl)-3-((2-(trifluoromethyl)pyridin-4-yl)oxy)cyclobutan-1-amine]",0.119
5,"COc1c(F)cc(O[C@H]2C[C@H](NCc3c(F)cc(CO)c4cnccc34)C2)cc1F [Example 48, (5-((((1r,3r)-3-(3,5-difluoro-4-methoxyphenoxy)cyclobutyl)amino)methyl)-6-fluoroisoquinolin-8-yl)methanol]",0.0345
6,"OCc1cc(F)c(CN[C@H]2C[C@H](Oc3ccc(F)c(C(F)(F)F)c3)C2)c2ccncc12 [Example 6, (6-fluoro-5-((((1r,3r)-3-(4-fluoro-3-(trifluoromethyl)phenoxy)cyclobutyl)amino)methyl)isoquinolin-8-yl)methanol, HCl]",0.00725
7,"Fc1ccc(O[C@H]2C[C@H](NCc3c(F)ccc4cnccc34)C2)cc1C(F)(F)F [Example 3, (1r,3r)-3-(4-fluoro-3-(trifluoromethyl)phenoxy)-N-((6-fluoroisoquinolin-5-yl)methyl)cyclobutan-1-amine, HCl]",0.00344
8,"Fc1ccc(CO[C@H]2C[C@H](NCc3c(F)ccc4cnccc34)C2)c(F)c1 [Example 105, (1r,3r)-3-((2,4-difluorobenzyl)oxy)-N-((6-fluoroisoquinolin-5-yl)methyl)cyclobutan-1-amine]",1.28
9,"OC[C@H](O)c1cc(F)c(CN[C@H]2C[C@H](Oc3ccc(F)c(C(F)(F)F)c3)C2)c2ccncc12 (single isomer, unassigned; peak 2) [Example 7 peak 2]",0.0063
10,"Fc1cc(O[C@H]2C[C@H](NCc3c(F)ccc4cnccc34)C2)ccc1OC(F)(F)F [Example 93, (1r,3r)-3-(3-fluoro-4-(trifluoromethoxy)phenoxy)-N-((6-fluoroisoquinolin-5-yl)methyl)cyclobutan-1-amine, HCl]",0.0826
11,"Cc1ccc(CN[C@H]2C[C@H](Oc3ccc(F)c(C(F)(F)F)c3)C2)c2ccncc12 [Example 24, (1r,3r)-3-(4-fluoro-3-(trifluoromethyl)phenoxy)-N-((8-methylisoquinolin-5-yl)methyl)cyclobutan-1-amine, HCl]",0.906
12,"CC(C)c1cc(O[C@H]2C[C@H](NCc3cccc4cnccc34)C2)ccc1F [Example 43, (1r,3r)-3-(4-fluoro-3-isopropylphenoxy)-N-(isoquinolin-5-ylmethyl)cyclobutan-1-amine, HCl]",0.528
13,"N#Cc1cc(O[C@H]2C[C@H](NCc3c(F)ccc4cnccc34)C2)ccc1C(F)(F)F [Example 59, 5-((1r,3r)-3-(((6-fluoroisoquinolin-5-yl)methyl)amino)cyclobutoxy)-2-(trifluoromethyl)benzonitrile]",0.0758
14,"Fc1ccc(O[C@H]2C[C@H](NCc3c(F)ccc4cncnc34)C2)cc1C(F)(F)F [Example 102, (1r,3r)-3-(4-fluoro-3-(trifluoromethyl)phenoxy)-N-((7-fluoroquinazolin-8-yl)methyl)cyclobutan-1-amine]",0.0603
15,"Nc1cc2c(CN[C@H]3C[C@H](Oc4ccc(F)cc4F)C3)c(F)cc(CO)c2cn1 [Example 19, (3-amino-5-((((1r,3r)-3-(2,4-difluorophenoxy)cyclobutyl)amino)methyl)-6-fluoroisoquinolin-8-yl)methanol, HCl]",0.0162
16,"Fc1ccc(O[C@H]2C[C@H](NCc3c(F)ccc4cnccc34)C2)c(F)c1 [Example 26, (1r,3r)-3-(2,4-difluorophenoxy)-N-((6-fluoroisoquinolin-5-yl)methyl)cyclobutan-1-amine]",0.108
17,"CC(O)c1cc(F)c(CN[C@H]2C[C@H](Oc3ccc(F)c(C(F)(F)F)c3)C2)c2ccncc12 (some centres unmarked) [Example 8, 1-(6-fluoro-5-((((1r,3r)-3-(4-fluoro-3-(trifluoromethyl)phenoxy)cyclobutyl)amino)methyl)isoquinolin-8-yl)ethan-1-ol, HCl]",0.165
18,"CS(=O)(=O)NCC(O)c1cc(F)c(CN[C@H]2C[C@H](Oc3ccc(F)c(C(F)(F)F)c3)C2)c2ccncc12 (some centres unmarked) [Example 66, N-(2-(6-fluoro-5-((((1r,3r)-3-(4-fluoro-3-(trifluoromethyl)phenoxy)cyclobutyl)amino)methyl)isoquinolin-8-yl)-2-hydroxyethyl)methanesulfonamide]",1.11

row,SMILES,IC50 [µM]
1,"CC(C)(C)c1c(F)cc(O[C@H]2C[C@H](NCc3c(F)cc(CO)c4cnccc34)C2)cc1F [Example 45, (5-((((1r,3r)-3-(4-(tert-butyl)-3,5-difluorophenoxy)cyclobutyl)amino)methyl)-6-fluoroisoquinolin-8-yl)methanol]",0.0188
2,"Nc1ccc(CN[C@H]2C[C@H](Oc3ccc(F)c(C(F)(F)F)c3)C2)c2ccncc12 [Example 5, 5-((((1r,3r)-3-(4-fluoro-3-(trifluoromethyl)phenoxy)cyclobutyl)amino)methyl)isoquinolin-8-amine, HCl]",0.259
3,"Fc1ccc2cnccc2c1CN[C@H]1C[C@H](Oc2ccc3c(c2)OC(F)(F)O3)C1 [Example 46, (1r,3r)-3-((2,2-difluorobenzo[d][1,3]dioxol-5-yl)oxy)-N-((6-fluoroisoquinolin-5-yl)methyl)cyclobutan-1-amine, HCl]",0.0402
4,"Fc1ccc2cnccc2c1CN[C@H]1C[C@H](Oc2ccc(C(F)F)nc2)C1 [Example 110, (1r,3r)-3-((6-(difluoromethyl)pyridin-3-yl)oxy)-N-((6-fluoroisoquinolin-5-yl)methyl)cyclobutan-1-amine]",1.38
5,"FC(F)(F)c1ccc(O[C@H]2C[C@H](NCc3cccc4cnccc34)C2)cn1 [Example 112, (1r,3r)-N-(isoquinolin-5-ylmethyl)-3-((6-(trifluoromethyl)pyridin-3-yl)oxy)cyclobutan-1-amine]",2.69
6,"Fc1ccc2cnccc2c1CN[C@H]1C[C@H](Oc2cnc(Cl)c(C(F)(F)F)c2)C1 [Example 62, (1r,3r)-3-((6-chloro-5-(trifluoromethyl)pyridin-3-yl)oxy)-N-((6-fluoroisoquinolin-5-yl)methyl)cyclobutan-1-amine]",0.336
7,"Fc1ccc(O[C@H]2C[C@H](NCc3c(F)ccc4cnccc34)C2)cc1C(F)F [Example 91, (1r,3r)-3-(3-(difluoromethyl)-4-fluorophenoxy)-N-((6-fluoroisoquinolin-5-yl)methyl)cyclobutan-1-amine, HCl]",0.0399
8,"Nc1cc2c(CN[C@H]3C[C@H](Oc4ccnc(C(F)(F)F)c4)C3)c(F)cc(CO)c2cn1 [Example 20, (3-amino-6-fluoro-5-((((1r,3r)-3-((2-(trifluoromethyl)pyridin-4-yl)oxy)cyclobutyl)amino)methyl)isoquinolin-8-yl)methanol, HCl]",0.0872
9,"Fc1ccc(O[C@H]2C[C@H](NCc3cccc4cnc(Cl)cc34)C2)cc1C(F)(F)F [Example 98, (1r,3r)-N-((3-chloroisoquinolin-5-yl)methyl)-3-(4-fluoro-3-(trifluoromethyl)phenoxy)cyclobutan-1-amine, HCl]",0.418
10,"Nc1cc(F)c(CN[C@H]2C[C@H](Oc3ccc(F)c(C(F)(F)F)c3)C2)c2ccncc12 [Example 12, 6-fluoro-5-((((1r,3r)-3-(4-fluoro-3-(trifluoromethyl)phenoxy)cyclobutyl)amino)methyl)isoquinolin-8-amine]",0.0578
11,"Fc1ccc2cnccc2c1CN[C@H]1C[C@H](Oc2ccc(C3CC3)cc2)C1 [Example 85, (1r,3r)-3-(4-cyclopropylphenoxy)-N-((6-fluoroisoquinolin-5-yl)methyl)cyclobutan-1-amine, HCl]",0.155
12,"FCc1cc(O[C@H]2C[C@H](NCc3c(F)ccc4cnccc34)C2)ccc1F [Example 41, (1r,3r)-3-(4-fluoro-3-(fluoromethyl)phenoxy)-N-((6-fluoroisoquinolin-5-yl)methyl)cyclobutan-1-amine, HCl]",0.09
13,"Fc1ccc2cnccc2c1CN[C@H]1C[C@H](Oc2ccc(C3CC3(F)F)cc2)C1 (some centres unmarked) [Example 42, (1r,3r)-3-(4-(2,2-difluorocyclopropyl)phenoxy)-N-((6-fluoroisoquinolin-5-yl)methyl)cyclobutan-1-amine, HCO2H]",0.173
14,"Fc1ccc(O[C@H]2C[C@H](NCc3c(F)ccc4cnccc34)C2)cc1F [Example 27, (1r,3r)-3-(3,4-difluorophenoxy)-N-((6-fluoroisoquinolin-5-yl)methyl)cyclobutan-1-amine, HCl]",0.023
15,"CCOC(=O)c1cccc(O[C@H]2C[C@H](NCc3c(F)ccc4cnccc34)C2)c1 [Example 34, ethyl 3-((1r,3r)-3-(((6-fluoroisoquinolin-5-yl)methyl)amino)cyclobutoxy)benzoate, HCl]",0.0836
16,"Nc1cc2c(CN[C@H]3C[C@H](Oc4ccc(F)c(C(F)(F)F)c4)C3)c(F)ccc2cn1 [Example 14, 6-fluoro-5-((((1r,3r)-3-(4-fluoro-3-(trifluoromethyl)phenoxy)cyclobutyl)amino)methyl)isoquinolin-3-amine, HCl]",0.00404
17,"Nc1cc2c(CN[C@H]3C[C@H](Oc4ccnc(C(F)(F)F)c4)C3)c(F)ccc2cn1 [Example 16, 6-fluoro-5-((((1r,3r)-3-((2-(trifluoromethyl)pyridin-4-yl)oxy)cyclobutyl)amino)methyl)isoquinolin-3-amine, HCl]",0.031
